Results reported in patent US20120065265A1, “ALPHA-2-DELTA LIGANDS FOR NON-RESTORATIVE SLEEP” (Pfizer Inc., priority 2006, published 2012).

Test system: subjects with non-restorative sleep (NRS)
Assay: Randomized, double-blind, placebo- and active-controlled 4-way crossover study in an NRS population: efficacy
Type: in vivo, human
Settings: for RSQ-W Total Score, comparison with placebo: one-sided alpha 0.05; for RSQ-W Total Score, LS Mean (primary endpoint): po, 336 h
Procedure: STUDY DESIGN. […] Subjects were subsequently crossed over 3 times to receive the remaining treatments, each for 2 weeks followed by a 1—week washout period. […] Each treatment was administered at least 2 hours after a meal. DIAGNOSIS AND MAIN CRITERIA FOR INCLUSION. Subjects selected for the study were male and/or nonpregnant, nonlactating females between the ages of 18-64 years, inclusive, who regularly (≧3 times/week) awoke un-restored or un-refreshed for at least the previous 3 months, causing significant distress or impairment in social, occupational, or other important areas of functioning during the daytime.
EFFICACY & SAFETY EVALUATIONS. The primary endpoint in this study was the Restorative Sleep Questionnaire—Weekly (RSQ-W) Total Score at the end of each 2-week treatment period. The RSQ-W, below, is a patient-reported outcome measure of morning refreshment over the past week in which larger values of the total score correspond to greater refreshment. All remaining efficacy/outcomes endpoints were considered secondary. Safety data, including adverse event information, clinical laboratory values, physical examination, vital signs, and electrocardiograms (ECGs) were collected during the study.
STATISTICAL METHODS. The Full Analysis Set was used in the analyses of all efficacy/outcome endpoints. […] The Per-Protocol Analysis Set was used for sensitivity analyses of certain efficacy/outcome endpoints as appropriate. […] Protocol deviations included the major inclusion/exclusion criteria assessed prior to randomization and major protocol deviations or violations assessed after randomization. […] The Safety Analysis Set was used in the analyses of the safety data and consisted of all randomized subjects who took any study medication.
Each comparison was done at the nominal alpha=0.05 level (one-sided), recognizing that the probability of committing at least one Type I error could be greater than 0.05 but no more than 0.15.
MODEL-BASED SUMMARY. The primary endpoint in this study was the RSQ-W Total Score at the end of each 2-week treatment period. This endpoint was analyzed using a linear model including sequence, period, and treatment as fixed factors, and subject within sequence and within-subject error as random factors. First-order carryover effects were explored and tested at the 10% nominal level of significance. Pair-wise comparisons were made based on the final linear model. The point estimates and 90% confidence intervals (Cis) for the placebo-adjusted treatment effects were constructed using the least squares (LS) means and appropriate standard errors.
DESCRIPTIVE SUMMARY. For each item and Total Score of the RSQ-W, descriptive statistics were provided by treatment and visit.
For secondary/exploratory purposes, certain secondary efficacy endpoints were analyzed with model-based statistical procedures. […] All comparisons are considered secondary/exploratory, and each was done at the nominal alpha=0.05 level (one-sided). No multiple comparison adjustment was made. All secondary efficacy endpoints were summarized descriptively. For secondary/exploratory purposes, appropriate model-based statistical procedures similar to those for the primary endpoint were used to analyze the following scales and subscales: • Restorative Sleep Questionnaire—Daily (RSQ-D, below): weekly averages of Total Score; • Daytime Consequences of Sleep Questionnaire (DCSQ): Total Score; • Multidimensional Assessment of Fatigue (MAF): Global Fatigue Index, Impact Subscale; • Subjective Sleep Questionnaire (SSQ): Sleep Quality; • Sheehan Disability Scale (SDS): Total Score; • SF-36v2: Mental Component Summary, Physical Component Summary, Vitality Subscale; • Clinical Global Impression of Change (CGIC): Status Score; and • Patient Global Impression of Change (PGIC): Status Score.

[1] = COMPOUND A doses (25 mg and 50 mg)

| Structure (SMILES) | RSQ-D Total Score at Week 2 (COMPOUND A 25 mg) | RSQ-W Total Score, comparison with placebo (COMPOUND A 25 mg) | Evening Functioning Scale (COMPOUND A dose groups, similar level of functioning as with zolpidem) | MAF Impact Subscale score at Week 2, comparison with placebo [1] | RSQ-D Total Score at Week 2, comparison with placebo [1] | RSQ-W Total Score, LS Mean (primary endpoint) (25 mg) | RSQ-W Total Score, LS Mean (primary endpoint) (50 mg) | Treatment effect relative to placebo on the primary endpoint, the RSQ-W (conclusion) (subjects with non-restorative sleep, no dose stated) | RSQ-W Total Score, comparison with placebo (zolpidem 10 mg) |
| --- | --- | --- | --- | --- | --- | --- | --- | --- | --- |
| C[C@H]1CC(CN)(CC(=O)O)C[C@@H]1C [COMPOUND A, (3S,4S)-(1-aminomethyl-3,4-dimethyl-cyclopentyl)-acetic acid] | 61.5 | statistically significantly different from placebo | better functioning than while taking placebo | not statistically significantly different from placebo | no statistically significant differences from placebo | 63.6 | 62.5 | positive treatment effect relative to placebo |  |
| Cc1ccc(-c2nc3ccc(C)cn3c2CC(=O)N(C)C)cc1 [zolpidem, reference compound] |  |  |  |  |  |  |  |  | not statistically significantly different from placebo |
